Measurements taken from the supplement of paper PMC10307832.

Assays:
Experiment in all cases: relative viability (nuclei count vs DMSO), 5 days (fraction); higher = more cells survive
[1] = compound: CC1(C)CCC(CN2CCN(c3ccc(C(=O)NS(=O)(=O)c4ccc(NCC5CCOCC5)c([N+](=O)[O-])c4)c(Oc4cnc5[nH]ccc5c4)c3)CC2)=C(c2ccc(Cl)cc2)C1 [Venetoclax] + COc1cccc2cc(-c3nc([C@H]4CC[C@H](C(=O)O)CC4)n4ncnc(N)c34)[nH]c12 [OSI-027] (partner 0.5 µM)
How it was run: (§1)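 For relative viability, nuclei counts in treated wells were divided by those in vehicle wells. Lung cancer cell lines had been pin-tool dosed in 1536-well plates the day after seeding and cultured for 5 days, then fixed and stained in one step (final 0.05% Triton X-100, 1% formaldehyde, 1 ug/ml Hoechst) and imaged at 4×. Doses were one drug alone or a fixed anchor-drug dose plus five library-drug doses (not always all listed) in √10 steps, and values are duplicate-plate medians.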

[2] = compound: CC1(C)CCC(CN2CCN(c3ccc(C(=O)NS(=O)(=O)c4ccc(NCC5CCOCC5)c([N+](=O)[O-])c4)c(Oc4cnc5[nH]ccc5c4)c3)CC2)=C(c2ccc(Cl)cc2)C1 [Venetoclax] + CS(=O)(=O)N1CCN(Cc2cc3nc(-c4cccc5[nH]ncc45)nc(N4CCOCC4)c3s2)CC1 [Pictilisib] (partner 1 µM)
How it was run: as §1

[3] = compound: Cn1cnc2c(F)c(Nc3ccc(Br)cc3Cl)c(C(=O)NOCCO)cc21 [Selumetinib] + CS(=O)(=O)CCNCc1ccc(-c2ccc3ncnc(Nc4ccc(OCc5cccc(F)c5)c(Cl)c4)c3c2)o1 [Lapatinib] (partner 2 µM)
How it was run: as §1

[4] = compound: Cn1cnc2c(F)c(Nc3ccc(Br)cc3Cl)c(C(=O)NOCCO)cc21 [Selumetinib] + Cc1nc(Nc2ncc(C(=O)Nc3c(C)cccc3Cl)s2)cc(N2CCN(CCO)CC2)n1 [Dasatinib] (partner 0.075 µM)
How it was run: as §1

Row | Cell Line | relative viability ([1]; first compound 0.01 µM) | relative viability ([1]; first compound 0.03162 µM) | relative viability ([1]; first compound 0.1 µM) | relative viability ([1]; first compound 0.3162 µM) | relative viability ([1]; first compound 1 µM) | relative viability ([2]; first compound 0.01 µM) | relative viability ([2]; first compound 0.03162 µM) | relative viability ([2]; first compound 0.1 µM) | relative viability ([2]; first compound 0.3162 µM) | relative viability ([2]; first compound 1 µM) | relative viability ([3]; first compound 0.02 µM) | relative viability ([3]; first compound 0.06325 µM) | relative viability ([3]; first compound 0.2 µM) | relative viability ([3]; first compound 0.6325 µM) | relative viability ([4]; first compound 0.02 µM) | relative viability ([4]; first compound 0.06325 µM) | relative viability ([4]; first compound 0.2 µM) | relative viability ([4]; first compound 0.6325 µM)
1 | HOP-62 | 0.879 | 0.861 | 0.842 | 0.838 | 0.78 | 0.725 | 1.04 | 0.493 | 0.904 | 0.634 | 1.08 | 0.86 | 0.732 | 0.636 | 0.583 | 0.526 | 0.387 | 0.249
2 | NCI-H2009 | 0.655 | 0.668 | 0.602 | 0.624 | 0.573 | 0.814 | 0.955 | 0.778 | 0.838 | 0.774 | 0.786 | 0.567 | 0.596 | 0.375 | 0.233 | 0.183 | 0.163 | 0.151
3 | NCI-H1755 | 0.73 | 0.74 | 0.68 | 0.757 | 0.667 | 0.346 | 0.482 | 0.398 | 0.449 | 0.465 | 0.971 | 0.953 | 0.91 | 0.998 | 0.417 | 0.388 | 0.407 | 0.476
4 | NCI-H520 | 0.262 | 0.287 | 0.209 | 0.253 | 0.217 | 0.304 | 0.351 | 0.283 | 0.257 | 0.286 | 0.894 | 0.799 | 0.86 | 0.883 | 0.261 | 0.29 | 0.278 | 0.306
5 | LOU-NH91 | 0.674 | 0.762 | 0.726 | 0.755 | 0.673 | 0.515 | 0.565 | 0.54 | 0.523 | 0.53 | 0.759 | 0.707 | 0.758 | 0.766 | 0.547 | 0.504 | 0.495 | 0.534
6 | LU99A | 0.288 | 0.321 | 0.316 | 0.338 | 0.295 | 0.321 | 0.357 | 0.362 | 0.297 | 0.319 | 1.05 | 1 | 1.02 | 0.963 | 0.58 | 0.643 | 0.509 | 0.6
7 | PC-14 | 0.735 | 0.875 | 0.696 | 0.855 | 0.722 | 0.588 | 0.649 | 0.693 | 0.81 | 0.604 | 0.285 | 0.252 | 0.234 | 0.207 | 0.265 | 0.26 | 0.256 | 0.217
8 | NCI-H1563 | 0.836 | 0.776 | 0.747 | 0.773 | 0.707 | 0.881 | 0.653 | 0.648 | 0.642 | 0.698 | 0.891 | 0.851 | 0.944 | 0.911 | 0.514 | 0.451 | 0.498 | 0.528
9 | NCI-H2126 | 0.691 | 0.794 | 0.719 | 0.692 | 0.636 | 0.482 | 0.538 | 0.487 | 0.528 | 0.488 | 0.714 | 0.671 | 0.7 | 0.667 | 0.484 | 0.483 | 0.498 | 0.515
